PubChem BioAssay AID248 (DTP/NCI, 2004)
Several values for one entry are separate records, joined by “and”; a condition that tells them apart may be missing. Equal values may be shown once. Inconclusive results and toxic doses are left out. Rule as the data show it: active = T/C of 150% or more; inactive = T/C below 125%.

Tested on: L1210 leukemia ip in BDF1 mice, survival T/C
Experiment: NCI In Vivo Anticancer Drug Screen. Data for tumor model L1210 Leukemia (intraperitoneal) in B6D2F1 (BDF1) mice
Conditions: endpoint: mean survival time, higher = longer survival
Method in brief: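 Value reflects the ratio of survival in compound-treated mice to survival in vehicle-treated controls, with both groups carrying the same transplanted tumor.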

[1] = dose: 100.0 mg/kg/injection, schedule: Q01DX001 (ip), vehicle: Klucel (hydroxypropylcellulose) (HPC)
[2] = dose: 200.0 mg/kg/injection, schedule: Q01DX001 (ip), vehicle: Klucel (hydroxypropylcellulose) (HPC)
[3] = dose: 400.0 mg/kg/injection, schedule: Q01DX001 (ip), vehicle: Klucel (hydroxypropylcellulose) (HPC)
[4] = dose: 100.0 mg/kg/injection, schedule: Q01DX009 (ip), vehicle: Klucel (hydroxypropylcellulose) (HPC)
[5] = dose: 100.0 mg/kg/injection, schedule: Q04DX003 (ip), vehicle: Klucel (hydroxypropylcellulose) (HPC)
[6] = dose: 200.0 mg/kg/injection, schedule: Q01DX009 (ip), vehicle: Klucel (hydroxypropylcellulose) (HPC)
[7] = dose: 200.0 mg/kg/injection, schedule: Q04DX003 (ip), vehicle: Klucel (hydroxypropylcellulose) (HPC)
[8] = dose: 400.0 mg/kg/injection, schedule: Q01DX009 (ip), vehicle: Klucel (hydroxypropylcellulose) (HPC)
[9] = dose: 400.0 mg/kg/injection, schedule: Q04DX003 (ip), vehicle: Klucel (hydroxypropylcellulose) (HPC)
[10] = dose: 100.0 mg/kg/injection, schedule: Q01DX009 (ip), vehicle: saline with Tween-80
[11] = dose: 100.0 mg/kg/injection, schedule: Q04DX003 (ip), vehicle: saline with Tween-80
[12] = dose: 200.0 mg/kg/injection, schedule: Q01DX009 (ip), vehicle: saline with Tween-80
[13] = dose: 200.0 mg/kg/injection, schedule: Q04DX003 (ip), vehicle: saline with Tween-80
[14] = dose: 400.0 mg/kg/injection, schedule: Q01DX009 (ip), vehicle: saline with Tween-80
[15] = dose: 400.0 mg/kg/injection, schedule: Q04DX003 (ip), vehicle: saline with Tween-80
[16] = dose: 50.0 mg/kg/injection, schedule: Q01DX009 (ip), vehicle: Klucel (hydroxypropylcellulose) (HPC)
[17] = dose: 25.0 mg/kg/injection, schedule: Q01DX009 (ip), vehicle: saline with Tween-80
[18] = dose: 50.0 mg/kg/injection, schedule: Q01DX009 (ip), vehicle: saline with Tween-80

Measured: T/C

COc1ccc(C2=CC=C(c3ccccc3)C2)cc1N
inactive: [1] 90 % of control | [2] 95 % of control | [3] 90 % of control

CC(=O)Nc1ccc(SS(=O)(=O)c2ccc(NC(C)=O)cc2)cc1
inactive: dose: 100.0 mg/kg/injection, schedule: Q01DX001 (ip), vehicle: saline 95 % of control | dose: 200.0 mg/kg/injection, schedule: Q01DX001 (ip), vehicle: saline 101 % of control | dose: 400.0 mg/kg/injection, schedule: Q01DX001 (ip), vehicle: saline 101 % of control

COc1ccc(Cl)cc1NC(=O)Nc1ccc(Nc2ccccc2)cc1
inactive: [4] 104 % of control | [5] 101 % of control | [6] 101 % of control | [7] 98 % of control | [8] 86 % of control | [9] 97 % of control

Nc1cc(O)cc(O)c1
inactive: [10] 95 % of control | [11] 91 % of control | [12] 95 % of control | [13] 98 % of control | [14] 102 % of control | [15] 89 % of control

COc1ccccc1/C=N\NC(=O)C1CC1
inactive: dose: 15.0 mg/kg/injection, schedule: Q01DX Z (ip), vehicle: carboxymethylcellulose (CMC) 102 % of control | dose: 30.0 mg/kg/injection, schedule: Q01DX Z (ip), vehicle: carboxymethylcellulose (CMC) 97 % of control | dose: 60.0 mg/kg/injection, schedule: Q01DX Z (ip), vehicle: carboxymethylcellulose (CMC) 97 % of control and 101 % of control | dose: 120.0 mg/kg/injection, schedule: Q01DX Z (ip), vehicle: carboxymethylcellulose (CMC) 101 % of control and 102 % of control | dose: 240.0 mg/kg/injection, schedule: Q01DX Z (ip), vehicle: carboxymethylcellulose (CMC) 98 % of control | dose: 480.0 mg/kg/injection, schedule: Q01DX Z (ip), vehicle: carboxymethylcellulose (CMC) 101 % of control | dose: 480.0 mg/kg/injection, schedule: Q01DX Z (oral), vehicle: carboxymethylcellulose (CMC) 106 % of control | dose: 960.0 mg/kg/injection, schedule: Q01DX Z (oral), vehicle: carboxymethylcellulose (CMC) 93 % of control

Cc1ncc(CO)n1Cc1ccccc1
inactive: [1] 104 % of control | [2] 104 % of control | [3] 114 % of control

CC(=O)CCCCc1ccccc1
inactive: dose: 100.0 mg/kg/injection, schedule: Q04DX002 (ip), vehicle: Klucel (hydroxypropylcellulose) (HPC) 88 % of control | dose: 200.0 mg/kg/injection, schedule: Q04DX002 (ip), vehicle: Klucel (hydroxypropylcellulose) (HPC) 102 % of control | dose: 400.0 mg/kg/injection, schedule: Q04DX002 (ip), vehicle: Klucel (hydroxypropylcellulose) (HPC) 88 % of control

CCCCC(SC(CC)(C(N)=O)c1ccccc1)C(=O)O (stereo not given)
inactive: dose: 100.0 mg/kg/injection, schedule: Q01DX001 (ip), vehicle: carboxymethylcellulose (CMC) 90 % of control | dose: 200.0 mg/kg/injection, schedule: Q01DX001 (ip), vehicle: carboxymethylcellulose (CMC) 102 % of control | dose: 400.0 mg/kg/injection, schedule: Q01DX001 (ip), vehicle: carboxymethylcellulose (CMC) 90 % of control

CN(C)c1ccc(N=Nc2ccncc2)cc1
inactive: dose: 25.0 mg/kg/injection, schedule: Q01DX009 (ip), vehicle: Klucel (hydroxypropylcellulose) (HPC) 98 % of control | [16] 98 % of control | [4] 94 % of control

Cc1n(-c2ccccc2)c2c([n+]1Cc1ccc([N+](=O)[O-])cc1)C(=O)c1ccccc1C2=O
inactive: dose: 5.0 mg/kg/injection, schedule: Q01DX001 (ip), vehicle: other 106 % of control | dose: 10.0 mg/kg/injection, schedule: Q01DX001 (ip), vehicle: other 101 % of control | dose: 20.0 mg/kg/injection, schedule: Q01DX001 (ip), vehicle: other 93 % of control | dose: 40.0 mg/kg/injection, schedule: Q01DX001 (ip), vehicle: other 95 % of control

COC(=O)C1CCC=C2C1CC1CC2C1(C)C (stereo not given)
inactive: [5] 97 % of control | [7] 103 % of control | [9] 95 % of control

CN(CCS)Cc1ccccc1
inactive: [17] 97 % of control | dose: 25.0 mg/kg/injection, schedule: Q04DX003 (ip), vehicle: saline with Tween-80 95 % of control | [18] 99 % of control | dose: 50.0 mg/kg/injection, schedule: Q04DX003 (ip), vehicle: saline with Tween-80 106 % of control | [10] 103 % of control | [11] 97 % of control and 102 % of control

CCC(=O)O[C@H]1CC[C@H]2[C@@H]3CCC4=CC(=O)CC[C@]4(C)[C@H]3CC[C@]12C
inactive: dose: 125.0 mg/kg/injection, schedule: Q01DX Z (sc), vehicle: steriod suspending solution 101 % of control and 106 % of control | dose: 250.0 mg/kg/injection, schedule: Q01DX Z (sc), vehicle: steriod suspending solution 97 % of control and 112 % of control | dose: 500.0 mg/kg/injection, schedule: Q01DX Z (sc), vehicle: steriod suspending solution 101 % of control and 103 % of control | dose: 500.0 mg/kg/injection, schedule: Q01DX Z (sc), vehicle: water 95 % of control | dose: 1000.0 mg/kg/injection, schedule: Q01DX Z (sc), vehicle: steriod suspending solution 100 % of control | dose: 1000.0 mg/kg/injection, schedule: Q01DX Z (sc), vehicle: water 97 % of control

CN(C)C(=O)C(OCc1ccccc1)C(OCc1ccccc1)C(OCc1ccccc1)C(O)COCc1ccccc1 (stereo not given)
inactive: [16] 88 % of control | [4] 96 % of control | [6] 100 % of control

CC1(C)COC(C2CC(=O)c3ccccc3C2)=N1 (stereo not given)
inactive: [18] 94 % of control | dose: 50.0 mg/kg/injection, schedule: Q04DX003 (ip), vehicle: saline 97 % of control | [10] 107 % of control | dose: 100.0 mg/kg/injection, schedule: Q04DX003 (ip), vehicle: saline 92 % of control | [12] 100 % of control | dose: 200.0 mg/kg/injection, schedule: Q04DX003 (ip), vehicle: saline 99 % of control | [14] 107 % of control | dose: 400.0 mg/kg/injection, schedule: Q04DX003 (ip), vehicle: saline 91 % of control

CNC(=S)N/N=C/c1ccccn1
inactive: dose: 25.0 mg/kg/injection, schedule: Q04DX003 (ip), vehicle: Klucel (hydroxypropylcellulose) (HPC) 112 % of control | dose: 50.0 mg/kg/injection, schedule: Q04DX003 (ip), vehicle: Klucel (hydroxypropylcellulose) (HPC) 97 % of control | [5] 93 % of control | [7] 101 % of control

CCCCCCCCC(=O)N1CCN(C)CC1
inactive: dose: 100.0 mg/kg/injection, schedule: Q04DX002 (ip), vehicle: saline 103 % of control

CCOC(=O)C1CCN(S(=O)(=O)c2ccc(C)cc2)c2cc(Cl)ccc2C1=O (stereo not given)
inactive: [4] 93 % of control | [5] 96 % of control | [6] 93 % of control | [7] 93 % of control | [8] 101 % of control | [9] 94 % of control

CC(=O)c1ccccc1OCC(O)CN1CCN(c2cccc(C(F)(F)F)c2)CC1 (stereo not given)
inactive: [11] 106 % of control | [13] 108 % of control | [15] 108 % of control

Cc1cc([N+](=O)[O-])c2ccccc2[n+]1[O-]
inactive: [17] 96 % of control

N#C/C(=C\c1ccccc1)C(=O)Nc1ccccc1
inactive: [5] 94 % of control | [7] 92 % of control | [9] 92 % of control

COc1cc(Cl)ccc1NC(=O)Oc1cccc2ccccc12
inactive: [4] 89 % of control | [6] 101 % of control | [8] 95 % of control

NC(=O)c1cc([N+](=O)[O-])ccc1N
inactive: dose: 100.0 mg/kg/injection, schedule: Q01DX001 (ip), vehicle: other 103 % of control | dose: 100.0 mg/kg/injection, schedule: Q04DX003 (ip), vehicle: saline sonified 103 % of control | dose: 200.0 mg/kg/injection, schedule: Q01DX001 (ip), vehicle: other 112 % of control | dose: 200.0 mg/kg/injection, schedule: Q04DX003 (ip), vehicle: saline sonified 105 % of control | dose: 400.0 mg/kg/injection, schedule: Q01DX001 (ip), vehicle: other 95 % of control | dose: 400.0 mg/kg/injection, schedule: Q04DX003 (ip), vehicle: saline sonified 111 % of control
